This note sets out measurements from ChEMBL document CHEMBL5614367, “Hydroxamic acid hybrids: Histone deacetylase inhibitors with anticancer therapeutic potency” (Eur J Med Chem, 2023).

One data set relates to SU-DHL-2. Put plainly: Antiproliferative activity against human SU-DHL-2 cells measured after 72 hrs by CCK-8 assay. It is filed as functional, cell-based. The settings on record: SU-DHL-2, 72 h.
Data set [1] has as its system HEL. Description: Antiproliferative activity against human HEL cells measured after 72 hrs by CCK-8 assay. Format: functional, cell-based.
For data set [2], the system named is WSUDLCL2. Description: Antiproliferative activity against human WSUDLCL2 cells measured after 72 hrs by CCK-8 assay. Format: functional, cell-based. The settings on record: WSUDLCL2, 72 h.
The next data set relates to K562. Put plainly: Antiproliferative activity against human K562 cells measured after 72 hrs by CCK-8 assay. The settings on record: K562, 72 h. It is filed as functional, cell-based.
The subject of data set [3] is WSUDLCL2. Description: Antitumor activity against human WSUDLCL2 cells xenografted in mouse assessed as tumor growth inhibition at 50 mg/kg, ip administered for 21 days. Format: functional. The settings on record: WSUDLCL2, 504 h, time 21 day, read-out: TGI.
The next data set concerns MV4-11. Put plainly: Antiproliferative activity against human MV4-11 cells measured after 72 hrs by CCK-8 assay. The settings on record: MV4-11, 72 h. Format: functional, cell-based.
In data set [4] the test system is CAPAN-1. Description: Antitumor activity against human CAPAN-1 cells xenografted in mouse assessed as tumor growth inhibition at 50 mg/kg, ip relative to control. Format: functional. The settings on record: read-out: TGI.
Data set [5] has as its system CAPAN-1. Description: Antitumor activity against human CAPAN-1 cells xenografted in mouse assessed as tumor growth inhibition at 50 mg/kg, ip in presence of vorinostat relative to control. It is filed as functional. The settings on record: read-out: TGI.
In data set [6] the target is T1, Histone deacetylase 1 (Homo sapiens, UniProt Q13547). Description: Inhibition of HDAC1 (unknown origin) preincubated for 10 mins followed by substrate addition and measured after 30 mins by fluorescence based microplate reader analysis.
T1 sequence (Q13547 whole entry): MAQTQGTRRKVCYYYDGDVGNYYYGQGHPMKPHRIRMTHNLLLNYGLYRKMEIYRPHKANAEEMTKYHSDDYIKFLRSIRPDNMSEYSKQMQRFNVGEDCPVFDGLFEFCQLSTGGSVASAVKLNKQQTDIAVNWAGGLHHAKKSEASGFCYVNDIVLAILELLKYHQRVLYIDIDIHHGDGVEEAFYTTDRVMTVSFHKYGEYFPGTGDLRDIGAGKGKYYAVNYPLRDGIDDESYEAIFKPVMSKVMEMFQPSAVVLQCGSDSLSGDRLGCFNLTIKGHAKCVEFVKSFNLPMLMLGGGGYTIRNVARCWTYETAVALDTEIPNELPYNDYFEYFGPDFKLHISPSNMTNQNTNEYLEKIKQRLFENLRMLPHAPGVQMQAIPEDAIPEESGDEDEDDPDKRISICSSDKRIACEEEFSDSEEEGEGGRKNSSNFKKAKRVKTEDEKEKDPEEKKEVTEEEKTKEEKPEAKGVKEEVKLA
The target in data set [7] is T1, Histone deacetylase 1. Put plainly: Inhibition of HDAC1 (unknown origin).
The subject of data set [8] is CAPAN-1. Description: Potency index, ratio of vorinostat IC50 to test compound IC50 for antiproliferative activity against human CAPAN-1 cells. Format: functional.
Data set [9] concerns the target Bromodomain-containing protein 4 (Homo sapiens, UniProt O60885). Put plainly: Inhibition of BRD4 (unknown origin).
Data set [10] concerns CAPAN-1. Put plainly: Antiproliferative activity against human CAPAN-1 cells. It is filed as functional, cell-based.
The test system of data set [11] is CAPAN-1. Description: Antitumor activity against human CAPAN-1 cells xenografted in mouse assessed as tumor growth inhibition at 100 mg/kg, ip relative to control. The settings on record: read-out: TGI. It is filed as functional.
For a further data set, the system named is HL60/ADR. Put plainly: Antiproliferative activity against human HL-60/ADR cells.
Data set [12] can be described thus: Antiproliferative activity against human HL-60/Vinc cells. The settings on record: HL60/vinc.
Data set [13] in a line: Cytotoxicity against HEK293 cells. It is filed as toxicity, cell-based. The settings on record: human.
The test system of a further data set is HCT-116. Put plainly: cells. The settings on record: Homo sapiens.
The subject of another data set is HL-60. Description: Antiproliferative activity against human HL-60 cells. It is filed as functional, cell-based.
The test system of data set [14] is MCF7. Description: cells. The settings on record: Homo sapiens.
In another data set the test system is Jurkat. Put plainly: Antiproliferative activity against human Jurkat cells. It is filed as functional, cell-based.
The next data set relates to SK-N-BE(2). Put plainly: Antiproliferative activity against human SK-N-BE(2) cells assessed as inhibition of cell growth incubated for 72 hrs by MTT assay. Format: functional, cell-based. The settings on record: SKNBE2, 72 h.
In the next data set the test system is KG-1. Description: Antiproliferative activity against human KG-1 cells assessed as inhibition of cell growth incubated for 72 hrs by MTT assay. It is filed as functional, cell-based. The settings on record: KG-1, 72 h.
Data set [15] relates to HEL. Description: Antiproliferative activity against human HEL cells assessed as inhibition of cell growth incubated for 72 hrs by MTT assay. It is filed as functional, cell-based.
The test system of a further data set is MOLT-4. Description: Antiproliferative activity against human MOLT-4 cells assessed as inhibition of cell growth incubated for 72 hrs by MTT assay. The settings on record: MOLT-4, 72 h. It is filed as functional, cell-based.
The test system of a further data set is MDA-MB-231. Description: Antiproliferative activity against human MDA-MB-231 cells assessed as inhibition of cell growth incubated for 72 hrs by MTT assay. Format: functional, cell-based. The settings on record: MDA-MB-231, 72 h.
A further data set has as its system PC-3. Description: Antiproliferative activity against human PC-3 cells assessed as inhibition of cell growth incubated for 72 hrs by MTT assay. It is filed as functional, cell-based. The settings on record: PC-3, 72 h.
The test system of data set [16] is MCF7. Description: Antiproliferative activity against human MCF7 cells assessed as inhibition of cell growth incubated for 72 hrs by MTT assay. It is filed as functional, cell-based. The settings on record: MCF7, 72 h.

The structures appear in SMILES notation.

Description for HCT-116: Antiproliferative activity against human HCT-116 cells

Turning to `C=C[C@@]1(C)CC[C@H](C(=C)CN2CCN(C(=O)CCCCCCC(=O)NO)CC2)C[C@@H]1C(=C)Cn1cccn1`, the IC50 with SU-DHL-2, in the data set with HEL [1], in the data set on WSUDLCL2 [2], in the data set with K562 and with MV4-11 was 0.79 µM throughout. In addition, the inhibition in vivo at 50 mg/kg in the data set on WSUDLCL2 [3] is 31.5%.
As for `Cc1sc2c(c1C)C(c1ccc(Cl)cc1)=N[C@@H](CC(=O)OC(C)(C)C)c1nnc(C)n1-2`, the inhibition in vivo at 50 mg/kg in the data set on CAPAN-1 [4] turned out to be 41%; with CAPAN-1 [5], 57%.
In the case of `C=C[C@]1(C)CC[C@@H](C(=C)Cn2cccn2)C[C@H]1C(=C)CN1CCN(C(=O)CCCCCCC(=O)NO)CC1`, the IC50 with SU-DHL-2 was found to be 1 µM; in the data set on HEL [1], 1 µM; against Histone deacetylase 1 [6] it was 0.008 µM; in the data set with WSUDLCL2 [2], 1 µM; in the data set with K562 it was 1 µM; in the data set with MV4-11, 1 µM.
Regarding `CC1=C(C)C2C(c3ccc(Cl)cc3)=N[C@@H](CC(=O)Nc3ccc(C(=O)NO)cc3)c3nnc(C)n3C2S1` (some centres undefined), the IC50 on Histone deacetylase 1 [7] was 0.021 µM; in [9] it was 0.011 µM; with CAPAN-1 [10] it was 0.15 µM. Also, the “Ratio IC50” value in the data set with CAPAN-1 [8] is recorded as 36. Moreover, the inhibition in vivo at 50 mg/kg in the data set on CAPAN-1 [4] is 69%. The inhibition in vivo at 100 mg/kg in the data set on CAPAN-1 [11] was 87.7%.
As to `CN(C)c1nc2c(Br)c(Br)c(Br)c(Br)c2n1CCCCCCCC(=O)NO`, the 50% inhibitory concentration (IC50) (with HL60/ADR; in data set [12]; in [13]; in the data set with HCT-116; with HL-60; in the data set on MCF7 [14]) was 2.32 µM in each case. The molecule also gave an IC50 with Jurkat of 2.32 µM.
As to `Nc1nc2ccc(OC(F)(F)F)cc2s1` [RILUZOLE], the 50% inhibitory concentration (IC50) in the data set on SK-N-BE(2), in the data set with KG-1, in the data set on HEL [15], in the data set on MOLT-4, in the data set on MDA-MB-231 and in the data set on PC-3 was above 10 µM each time. In the data set with MCF7 [16], the concentration for half-maximal inhibition (IC50) was above 10 µM.
